Experimental data: patent US20230167132A1, “FORMS AND COMPOSITIONS OF INHIBITORS OF PLASMA KALLIKREIN” (Takeda Pharmaceutical Company Limited, priority 2020, published 2023)
Values joined by “and” are separate entries in the source; they are usually repeats but may differ in a detail not shown here. Identical values can stand only once. “Also recorded” adds a separate entry of the source.

How the values were obtained:
Assay type in all cases: physicochemical
[1] = Intrinsic Dissolution Rate (IDR), Sirius inForm
Description: About 40 mg of the sample was compressed in a 6 mm disc recess, under 100 kg for 2 minutes, with greaseproof paper on the compression base, to form nondisintegrating discs. The discs were then plugged with a bung so that only one surface was exposed to the media during analysis and transferred to the Sirius inForm dissolution apparatus. Analysis was performed at 37° C. in 40 mL media (36 mL ISA water, 4 mL 0.1 M Acetate Phosphate Buffer). Dissolution data were collected over 4 pH sectors (pH 2.0, 5.5, 6.5, and 7.4) for a total of 2 hours—30 minutes per sector, with UV spectra collected every 30 seconds. A stir speed of 225 rpm was used with a 10 mm path length probe. The IDR was calculated based on the surface area of the 3/6/8 mm disc recess used (28.3 mm2 surface area). XRPD analysis was performed on all samples, both after compression of the material into the disc recess, and post dissolution analysis to observe any change in form. XRPD diffractograms were collected on the Bruker C2.

[2] = Gravimetric vapour sorption (GVS) analysis
[3] = Storage for one week at 40° C./75% RH and 25° C./97% RH, XRPD; details: one week (7 days); scaled-up / characterised material
[4] = Competitive slurry / thermodynamic stability of solid forms; details: competitive slurries at 5 and 50° C. in selected solvents, XRPD
Description: To these, 40 vol (1 mL) selected solvents was added and the material slurried at 5° C. or 50° C. for 72 hours on a HEL polyblock (500 rpm stirring). Solids were subsequently isolated by filtration and dried under suction prior to analysis by XRPD. In all but one experiment, Form 1 was the sole detectable phase by XRPD obtained after 72 hours.
These were mixed, and then aliquots (20 mg) of this mixture were dispensed into HPLC vials and 90 vol (1.8 mL) selected solvents added. Samples were slurried using a Polar Bear with 500 rpm magnetic stirring at 5 and 50° C. After 24 hours, aliquots were removed and analysed by XRPD. Experiment numbers: 01-10.
120 mg of both Compound 6 Pattern 1 and Compound 6 Pattern 4 were dispensed into a 20 mL vial. These were mixed, and then aliquots (20 mg) of this mixture was dispensed into HPLC vials and 90 vol selected solvents were added. Samples were slurried using a Polar Bear with 500 rpm magnetic stirring. Aliquots were removed after four days and analyzed by XRPD.

SMILES: O=C(NCc1ncn2ccc(Cl)c(F)c12)c1cn(Cc2cn3cc(C4CC4)ccc3n2)nn1 [Compound 1 Form 1, N-((7-chloro-8-fluoroimidazo[1,5-a]pyridin-1-yl)methyl)-1-((6-cyclopropylimidazo[1,2-a]pyridin-2-yl)methyl)-1H-1,2,3-triazole-4-carboxamide]
- IDR Sector 1 average (pH 2.0) ([1]; pH 2.0, 37° C., average): 104.8 μg/min/cm^2
- IDR Sector 1 pH 2.0 ([1]; pH 2.0, 37° C., individual runs): 104.3 μg/min/cm^2 and 105.2 μg/min/cm^2
- XRPD Analysis Post Dissolution ([1]; solid form of disc after IDR analysis): No change
- GVS increase in mass ([2]; RH range not given): 0.5%
- XRPD post GVS analysis ([2]; change of solid form after GVS): Material unchanged by XRPD post GVS
- GVS hygroscopicity ([2]; classification in words): slightly hygroscopic
- Storage 25° C./97% RH, XRPD [3]: Compound 1 Form 1
- Storage 40° C./75% RH, XRPD [3]: Compound 1 Form 1
- thermodynamic stability relative to other solid forms [4]: more thermodynamically stable than Compound 1 Form 3
- thermodynamic stability relative to other solid forms ([4]; listed as Form 1): more thermodynamically stable than Form 2; also recorded: more thermodynamically stable polymorph; also recorded: polymorph most stable to typical storage and process conditions
